According to patent US20060029684A1, “Synergistic treatment of DNA viral infections” (Henderson Morley Research and Development Limited, priority 1999, published 2006):
Where two headings read alike, the source gives them in different places.

How the values were obtained:
[1] = tested on: Type 2 herpes simplex strain 3345; experiment: Herpes simplex virus bioassay in Vero cells, inhibition of hsv2 (Example 2); format: cell-based; conditions: Human alphaherpesvirus 2, Vero
Experimental: . Culture and assay methods follow those described by Lennette and Schmidt (1979) for herpes simplex virus and Vero cells with minor modifications.
Type 1 herpes simplex strain HFEM is a derivative of the Rockerfeller strain HF (Wildy 1955), and Type 2 herpes simplex strain 3345, a penile isolate (Skinner et al 1977) were used as prototype strains. These prototypes were stored at −80° C. until needed.
African Green Monkey kidney cells (vero) were obtained from the National Institute of Biological Standards and Control UK and were used as the only cell line for all experiments in this example.
Cells and viruses were maintained on Glasgows modified medium supplemented with 10% foetal bovine serum.

[2] = tested on: type 2 herpes simplex virus strain 3345; experiment: Inhibition of HSV2 replication in infected African green monkey kidney cells (Example 1, Table 1); format: cell-based; conditions: for inhibition of virus replication: Lithium 0 mN
Excerpt: Compositions were applied to African green monkey kidney and […] cells infected with type 2 herpes simplex virus strains 3345 and 180 at low, intermediate and high multiplicities of infection. MOI inhibition of virus replication was scored as follows: […]

NS(=O)(=O)c1cc(C(=O)O)c(NCc2ccco2)cc1Cl [Frusemide, 4-chloro-N-furfuryl-5-sulfamoylanthranilic acid]
− (No inhibition): inhibition of virus replication ([2]; HIGH MOI HSV2, Frusemide 0.5 mg/ml) | inhibition of virus replication ([2]; HIGH MOI HSV2, Frusemide 1.0 mg/ml) | inhibition of virus replication ([2]; HIGH MOI HSV2, Frusemide 2.0 mg/ml) | inhibition of virus replication ([2]; LOW MOI HSV2, Frusemide 0.5 mg/ml) | inhibition of virus replication ([2]; LOW MOI HSV2, Frusemide 1.0 mg/ml) | inhibition of virus replication ([2]; LOW MOI HSV2, Frusemide 2.0 mg/ml)
no inhibition: inhibition of hsv2 replication ([2]; frusemide 2 mg/ml, all multiplicities of infection)
40%: inhibition at 1000 µg/mL ([1]; read-out: Inhibition of hsv2, Effect of frusemide alone, Multiplicity of infection Low, frusemide (1 mg/ml)) | inhibition at 1000 µg/mL ([1]; read-out: Inhibition of hsv2, Effect of frusemide alone, Multiplicity of infection Medium, frusemide (1 mg/ml))
0%: inhibition at 1000 µg/mL ([1]; read-out: Inhibition of hsv2, Effect of frusemide alone, Multiplicity of infection High, frusemide (1 mg/ml)) | inhibition at 500 µg/mL ([2]; Human alphaherpesvirus 2) | inhibition at 1000 µg/mL ([2]; Human alphaherpesvirus 2) | inhibition at 2000 µg/mL ([2]; Human alphaherpesvirus 2)
